# Test results as given in paper PMC7156458, “Synthetic biology based construction of biological activity-related library of fungal decalin-containing diterpenoid pyrones” (Nature Communications, 2020).
# Molecular target: Aβ42 (Homo sapiens, UniProt P05067)
# Assay: Th-T (thioflavin-T) assay of Aβ42 aggregation
# Format: biochemical
# Conditions: for Th-T assay plate reading, mean of three wells (Supplementary Fig. 47): source data, Ab alone and No Ab as controls
# Sequence of Aβ42 (P05067 672-713): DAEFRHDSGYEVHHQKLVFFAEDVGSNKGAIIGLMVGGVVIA
smiles,measurement,setting,value
C=C1CCC2C(C)(CC(=O)C=C(C)C)C(O)CCC2(C)C1Cc1c(OC)oc(CO)c(C)c1=O (centres unmarked) [Compound 19],"Th-T fluorescence, mean of three wells","Aβ42 aggregation time course, reading M117",3.6075
same,"Th-T fluorescence, mean of three wells","Aβ42 aggregation time course, reading M118",3.626
same,"Th-T fluorescence, mean of three wells","Aβ42 aggregation time course, reading M119",3.587
same,"Th-T fluorescence, mean of three wells","Aβ42 aggregation time course, reading M120",3.625
same,"Th-T fluorescence, mean of three wells","Aβ42 aggregation time course, reading M121",3.6213
same,"Th-T fluorescence, mean of three wells","Aβ42 aggregation time course, reading M122",3.6222
same,"Th-T fluorescence, mean of three wells","Aβ42 aggregation time course, reading M123",3.606
same,"Th-T fluorescence, mean of three wells","Aβ42 aggregation time course, reading M124",3.5846
same,"Th-T fluorescence, mean of three wells","Aβ42 aggregation time course, reading M125",3.61
same,"Th-T fluorescence, mean of three wells","Aβ42 aggregation time course, reading M126",3.596
same,"Th-T fluorescence, mean of three wells","Aβ42 aggregation time course, reading M127",3.587
same,"Th-T fluorescence, mean of three wells","Aβ42 aggregation time course, reading M128",3.613
same,"Th-T fluorescence, mean of three wells","Aβ42 aggregation time course, reading M129",3.627
same,"Th-T fluorescence, mean of three wells","Aβ42 aggregation time course, reading M130",3.59
same,"Th-T fluorescence, mean of three wells","Aβ42 aggregation time course, reading M131",3.596
same,"Th-T fluorescence, mean of three wells","Aβ42 aggregation time course, reading M132",3.652
same,"Th-T fluorescence, mean of three wells","Aβ42 aggregation time course, reading M133",3.618
same,"Th-T fluorescence, mean of three wells","Aβ42 aggregation time course, reading M134",3.586
same,"Th-T fluorescence, mean of three wells","Aβ42 aggregation time course, reading M135",3.587
same,"Th-T fluorescence, mean of three wells","Aβ42 aggregation time course, reading M136",3.617
same,"Th-T fluorescence, mean of three wells","Supplementary Fig. 47, reading M137",3.599
same,"Th-T fluorescence, mean of three wells","Supplementary Fig. 47, reading M138",3.596
same,"Th-T fluorescence, mean of three wells","Supplementary Fig. 47, reading M139",3.59
same,"Th-T fluorescence, mean of three wells","Supplementary Fig. 47, reading M140",3.5958
same,"Th-T fluorescence, mean of three wells","Supplementary Fig. 47, reading M141",3.577
same,"Th-T fluorescence, mean of three wells","Supplementary Fig. 47, reading M142",3.567
same,"Th-T fluorescence, mean of three wells","Supplementary Fig. 47, reading M143",3.559
same,"Th-T fluorescence, mean of three wells","Supplementary Fig. 47, reading M144",3.573
same,"Th-T fluorescence, mean of three wells","Supplementary Fig. 47, reading M145",3.546
same,"Th-T fluorescence, mean of three wells","Supplementary Fig. 47 source data, measurement M37 of time course",3.411
same,"Th-T fluorescence, mean of three wells","Supplementary Fig. 47 source data, measurement M38 of time course",3.42
same,"Th-T fluorescence, mean of three wells","Supplementary Fig. 47 source data, measurement M39 of time course",3.449
same,"Th-T fluorescence, mean of three wells","Supplementary Fig. 47 source data, measurement M40 of time course",3.484
same,"Th-T fluorescence, mean of three wells","Supplementary Fig. 47 source data, measurement M41 of time course",3.495
same,"Th-T fluorescence, mean of three wells","Supplementary Fig. 47 source data, measurement M42 of time course",3.511
same,"Th-T fluorescence, mean of three wells","Supplementary Fig. 47 source data, measurement M43 of time course",3.5042
same,"Th-T fluorescence, mean of three wells","Supplementary Fig. 47 source data, measurement M44 of time course",3.529
same,"Th-T fluorescence, mean of three wells","Supplementary Fig. 47 source data, measurement M45 of time course",3.546
same,"Th-T fluorescence, mean of three wells","Supplementary Fig. 47 source data, measurement M46 of time course",3.545
same,"Th-T fluorescence, mean of three wells","Supplementary Fig. 47 source data, measurement M47 of time course",3.542
same,"Th-T fluorescence, mean of three wells","Supplementary Fig. 47 source data, measurement M48 of time course",3.567
same,"Th-T fluorescence, mean of three wells","Supplementary Fig. 47 source data, measurement M49 of time course",3.564
same,"Th-T fluorescence, mean of three wells","Supplementary Fig. 47 source data, measurement M50 of time course",3.566
same,"Th-T fluorescence, mean of three wells","Supplementary Fig. 47 source data, measurement M51 of time course",3.621
same,"Th-T fluorescence, mean of three wells","Supplementary Fig. 47 source data, measurement M52 of time course",3.57
same,"Th-T fluorescence, mean of three wells","Supplementary Fig. 47 source data, measurement M53 of time course",3.596
same,"Th-T fluorescence, mean of three wells","Supplementary Fig. 47 source data, measurement M54 of time course",3.5732
same,"Th-T fluorescence, mean of three wells","Supplementary Fig. 47 source data, measurement M55 of time course",3.592
same,"Th-T fluorescence, mean of three wells","Supplementary Fig. 47 source data, measurement M56 of time course",3.662
same,"Th-T assay plate reading, mean of three wells (Supplementary Fig. 47)",measurement M1,0.2658
same,"Th-T assay plate reading, mean of three wells (Supplementary Fig. 47)",measurement M2,0.2823
same,"Th-T assay plate reading, mean of three wells (Supplementary Fig. 47)",measurement M3,0.3173
same,"Th-T assay plate reading, mean of three wells (Supplementary Fig. 47)",measurement M4,0.3889
same,"Th-T assay plate reading, mean of three wells (Supplementary Fig. 47)",measurement M5,0.4637
same,"Th-T assay plate reading, mean of three wells (Supplementary Fig. 47)",measurement M6,0.5676
same,"Th-T assay plate reading, mean of three wells (Supplementary Fig. 47)",measurement M7,0.5832
same,"Th-T assay plate reading, mean of three wells (Supplementary Fig. 47)",measurement M8,0.6497
same,"Th-T assay plate reading, mean of three wells (Supplementary Fig. 47)",measurement M9,0.6755
same,"Th-T assay plate reading, mean of three wells (Supplementary Fig. 47)",measurement M10,0.7219
same,"Th-T assay plate reading, mean of three wells (Supplementary Fig. 47)",measurement M11,0.7495
same,"Th-T assay plate reading, mean of three wells (Supplementary Fig. 47)",measurement M12,0.7862
same,"Th-T assay plate reading, mean of three wells (Supplementary Fig. 47)",measurement M13,0.8322
same,"Th-T assay plate reading, mean of three wells (Supplementary Fig. 47)",measurement M14,0.8734
same,"Th-T assay plate reading, mean of three wells (Supplementary Fig. 47)",measurement M15,0.9399
same,"Th-T assay plate reading, mean of three wells (Supplementary Fig. 47)",measurement M16,1.015
same,"Th-T fluorescence, mean of three wells","reading M17, Supplementary Fig. 47 source data",1.1695
same,"Th-T fluorescence, mean of three wells","reading M18, Supplementary Fig. 47 source data",1.449
same,"Th-T fluorescence, mean of three wells","reading M19, Supplementary Fig. 47 source data",1.7884
same,"Th-T fluorescence, mean of three wells","reading M20, Supplementary Fig. 47 source data",2.128
same,"Th-T fluorescence, mean of three wells","reading M21, Supplementary Fig. 47 source data",2.459
same,"Th-T fluorescence, mean of three wells","reading M22, Supplementary Fig. 47 source data",2.644
same,"Th-T fluorescence, mean of three wells","reading M23, Supplementary Fig. 47 source data",2.778
same,"Th-T fluorescence, mean of three wells","reading M24, Supplementary Fig. 47 source data",2.868
same,"Th-T fluorescence, mean of three wells","reading M25, Supplementary Fig. 47 source data",2.94
same,"Th-T fluorescence, mean of three wells","reading M26, Supplementary Fig. 47 source data",3.016
same,"Th-T fluorescence, mean of three wells","reading M27, Supplementary Fig. 47 source data",3.079
same,"Th-T fluorescence, mean of three wells","reading M28, Supplementary Fig. 47 source data",3.14
same,"Th-T fluorescence, mean of three wells","reading M29, Supplementary Fig. 47 source data",3.171
same,"Th-T fluorescence, mean of three wells","reading M30, Supplementary Fig. 47 source data",3.2173
same,"Th-T fluorescence, mean of three wells","reading M31, Supplementary Fig. 47 source data",3.256
same,"Th-T fluorescence, mean of three wells","reading M32, Supplementary Fig. 47 source data",3.313
same,"Th-T fluorescence, mean of three wells","reading M33, Supplementary Fig. 47 source data",3.3097
same,"Th-T fluorescence, mean of three wells","reading M34, Supplementary Fig. 47 source data",3.333
same,"Th-T fluorescence, mean of three wells","reading M35, Supplementary Fig. 47 source data",3.364
same,"Th-T fluorescence, mean of three wells","reading M36, Supplementary Fig. 47 source data",3.374
same,"Th-T fluorescence, mean of three wells","time course, reading M57",3.606
same,"Th-T fluorescence, mean of three wells","time course, reading M58",3.638
same,"Th-T fluorescence, mean of three wells","time course, reading M59",3.598
same,"Th-T fluorescence, mean of three wells","time course, reading M60",3.6035
same,"Th-T fluorescence, mean of three wells","time course, reading M61",3.616
same,"Th-T fluorescence, mean of three wells","time course, reading M62",3.642
same,"Th-T fluorescence, mean of three wells","time course, reading M63",3.645
same,"Th-T fluorescence, mean of three wells","time course, reading M64",3.635
same,"Th-T fluorescence, mean of three wells","time course, reading M65",3.622
same,"Th-T fluorescence, mean of three wells","time course, reading M66",3.629
same,"Th-T fluorescence, mean of three wells","time course, reading M67",3.626
same,"Th-T fluorescence, mean of three wells","time-course reading M97, Supplementary Fig. 47 source data",3.5997
same,"Th-T fluorescence, mean of three wells","time-course reading M98, Supplementary Fig. 47 source data",3.623
same,"Th-T fluorescence, mean of three wells","time-course reading M99, Supplementary Fig. 47 source data",3.625
same,"Th-T fluorescence, mean of three wells","time-course reading M100, Supplementary Fig. 47 source data",3.601
same,"Th-T fluorescence, mean of three wells","time-course reading M101, Supplementary Fig. 47 source data",3.5892
same,"Th-T fluorescence, mean of three wells","time-course reading M102, Supplementary Fig. 47 source data",3.633
same,"Th-T fluorescence, mean of three wells","time-course reading M103, Supplementary Fig. 47 source data",3.645
same,"Th-T fluorescence, mean of three wells","time-course reading M104, Supplementary Fig. 47 source data",3.661
same,"Th-T fluorescence, mean of three wells","time-course reading M105, Supplementary Fig. 47 source data",3.626
same,"Th-T fluorescence, mean of three wells","time-course reading M106, Supplementary Fig. 47 source data",3.655
same,"Th-T fluorescence, mean of three wells","time-course reading M107, Supplementary Fig. 47 source data",3.608
same,"Th-T fluorescence, mean of three wells","time-course reading M108, Supplementary Fig. 47 source data",3.642
same,"Th-T fluorescence, mean of three wells","time-course reading M109, Supplementary Fig. 47 source data",3.6107
same,"Th-T fluorescence, mean of three wells","time-course reading M110, Supplementary Fig. 47 source data",3.642
same,"Th-T fluorescence, mean of three wells","time-course reading M111, Supplementary Fig. 47 source data",3.621
same,"Th-T fluorescence, mean of three wells","time-course reading M112, Supplementary Fig. 47 source data",3.604
same,"Th-T fluorescence, mean of three wells","time-course reading M113, Supplementary Fig. 47 source data",3.595
same,"Th-T fluorescence, mean of three wells","time-course reading M114, Supplementary Fig. 47 source data",3.63
same,"Th-T fluorescence, mean of three wells","time-course reading M115, Supplementary Fig. 47 source data",3.6287
same,"Th-T fluorescence, mean of three wells","time-course reading M116, Supplementary Fig. 47 source data",3.617
